Experimental data as given in ChEMBL document CHEMBL5727056, “Substituted indazoles, methods for the production thereof, pharmaceutical preparations that contain said new substituted indazoles, and use of said new substituted indazoles to produce drugs” (2019).

Molecular target: T1, Interleukin-1 receptor-associated kinase 4 (Homo sapiens, UniProt Q9NWZ3)
T1 sequence (Q9NWZ3 whole entry): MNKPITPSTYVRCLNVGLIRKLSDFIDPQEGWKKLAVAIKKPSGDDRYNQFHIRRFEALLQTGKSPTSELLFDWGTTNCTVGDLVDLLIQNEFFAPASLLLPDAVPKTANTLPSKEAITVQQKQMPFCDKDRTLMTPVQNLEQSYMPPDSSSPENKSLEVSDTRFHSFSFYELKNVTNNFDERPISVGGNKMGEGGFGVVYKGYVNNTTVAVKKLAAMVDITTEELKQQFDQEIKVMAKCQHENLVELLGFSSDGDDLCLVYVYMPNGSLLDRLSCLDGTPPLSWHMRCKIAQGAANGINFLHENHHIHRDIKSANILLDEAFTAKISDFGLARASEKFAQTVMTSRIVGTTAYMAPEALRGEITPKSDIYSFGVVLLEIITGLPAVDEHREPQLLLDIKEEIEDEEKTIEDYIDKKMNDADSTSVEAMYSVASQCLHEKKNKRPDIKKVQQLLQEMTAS
Assay: IRAK4 Kinase Assay: For the assay, 11 different concentrations in the range from 20 μM to 0.073 nM were prepared from a 2 mM DMSO solution of the test substance. 50 nl of the respective solution were pipetted into a black low-volume 384-well microtitre plate (Greiner Bio-One, Frickenhausen, Germany), 2 μl of a solution of IRAK4 in assay buffer [50 mM HEPES pH 7.5, 5 mM MgCl2, 1.0 mM …

IC50: 136 nM
SMILES: COCCn1cc2cc(NC(=O)c3cccc(C(F)(F)F)n3)c(CO)cc2n1
